Like-named read-outs stand apart in the source and are kept apart here.
Legend:
[1] = tested on: LPS-induced endotoxemia in mice; test: Sublethal LPS-induced peritonitis (endotoxemia) mouse model; format: in vivo
Experimental: (§1) 12-wk-old WT C57BL/6J mice were purchased from Jackson Laboratory (Strain #000664). An equal number of male and female mice were randomly assigned to each treatment group. All studies were conducted according to a protocol approved by the University of Virginia Animal Care and Use Committee. Mice were socially housed with littermate controls and provided with free access to a standard chow diet and water. Baseline weights were taken <1 h prior to the experiment for individual dose calculations. For the sublethal model, mice were injected intraperitoneally with LPS (1 mg/kg), VPC01091.4 (30 mg/kg), both LPS and VPC01091.4, or vehicle alone (20% 2-hydroxypropyl-β-cyclodextrin in PBS). The volume injected was 200 μl and solutions were sterile-filtered (0.45 µm) prior to use. […] Mice were euthanized at 4 h, then blood was collected via cardiac puncture and anticoagulated with K2EDTA. […] The lungs were dissected, coarsely homogenized, and partitioned into separate samples for RNA extraction and mass spectrometry analysis. Samples to be used for RNA were stored at −20°C in RNAlater Stabilization Solution (AM7021; Thermo Fisher Scientific) while samples for use in mass spectrometry were flash-frozen in liquid nitrogen. Whole brains were physically dissected, coarsely homogenized, and stored for later processing as with the lung tissue. 10 μl of each whole blood sample was reserved for mass spectrometry analysis, 15 μl was used to obtain lymphocyte counts with a Hematology Analyzer (Heska Element HT5), and the remainder was used to produce plasma through centrifugation at 2,000 × g for 15 min at 4°C. Plasma cytokines were then measured using a multiplex mouse proinflammatory cytokine panel performed by the University of Virginia Flow Cytometry Core (RRID: SCR_017829). Cytokine values beyond the limit of detection (LOD) are reported as the LOD value. Tissue RNA was isolated from preserved samples using 30 min of automated homogenization at 30 Hz with 5-mm ball-bearings in RLT Plus Lysis Buffer (TissueLyser II; Qiagen); RNA was then isolated using a RNeasy Plus Micro Kit (74134; Qiagen). Whole-tissue cytokine expression changes were then measured using qRT-PCR as with ex vivo cell culture experiments. For the lethal dose model, mice were injected with LPS (25 mg/kg), both LPS and VPC01091.4, or vehicle alone (20% 2-hydroxypropyl-β-cyclodextrin in PBS). Symptoms were scored according to a standardized clinical score sheet that assessed conjunctivitis, lethargy, degradation in hair grooming behavior, stool changes, and facial grimace (Table 1). Mice that lost >20% of their starting body weight or received a clinical score of 8 or greater were euthanized.

S1P receptors = conditions: ref Brinkmann et al., 2002; Zhu et al., 2007; cited from earlier work
lymphocytes = tested on: lymphocytes; set-up: method as in Brinkmann et al., 2002; Zhu et al., 2007; conditions: ref Brinkmann et al., 2002; Zhu et al., 2007; cited from earlier work
RAW 264.7 macrophages = test: LPS-induced inflammatory gene expression (qRT-PCR) in RAW 264.7 macrophages; format: cell-based; conditions: LPS 1 µg/ml for 3 h
Experimental: RAW 264.7 macrophages or BMDMs were seeded at a density of 250,000 cells per well into a 12-well tissue culture plate in 1 ml of media and left to incubate overnight. The indicated drug or vehicle control was added to each well, and the plate was agitated and left to incubate for 10 min. The cells were then treated with LPS (1 μg/ml) or an equivalent volume of PBS, agitated, and left to incubate for 3 h. Cells were washed with PBS and then RNA isolation was performed using RNeasy Plus Micro Kit (74134; Qiagen). cDNA was produced using GoScript Reverse Transcriptase ([…]; Promega) and a quantitative PCR was performed using SensiFast SYBR (98020; Bioline) and Bio-Rad CFX Connect thermocycler. Each datum represents an individual, biological replicate that is the mean of duplicate technical replicates. Fold-changes are all reported relative to untreated controls for each experiment and were calculated using the ΔΔCt method, with β2-microglobulin used as the housekeeping gene for each sample. The experiment was performed similarly with BV-2 microglia and alveolar macrophages, except that cells were plated at a density of 100,000 cells per well into a 24-well tissue culture plate with 1 ml of media per well.

[2] = Whole-blood, brain and lung drug levels by LC-MS/MS in the sublethal LPS peritonitis model; format: in vivo; conditions: for Kp at 4 h / concentration at 4 h: both sexes, C57BL/6J, mouse, intraperitoneal
Experimental: as §1
The sample preparation method was adapted from that published by [Shaner et al. (2009)]. Specifically, homogenized tissue (100 μl) was added to a mixture of methanol and chloroform (2 ml, 3:1, LCMS grade) and incubated at 48°C for 16 h. The mixture was cooled to room temperature, an alcoholic KOH solution (200 μl, 1 M in LCMS-grade methanol) was added, and the mixture was further incubated at 37°C for 2 h. The samples were neutralized with glacial acetic acid (20 μl) and centrifuged at 4°C for 10 min at 10,000 × g. The supernatant fluid was transferred to a glass vial and dried under a stream of nitrogen. The material was dissolved in LCMS grade methanol (500 μl), vortexed, and centrifuged at 4°C for 10 min at 10,000 × g. The supernatant fluid was transferred to LC vials for analysis by LC-MS/MS.
Analyses were performed using a tandem quadrupole mass spectrometer (Xevo TQ-S micro; Waters) coupled to a UPLC (Waters Acquity h-class+) inlet equipped with a reverse phase C18 UPLC column (BEH C-18 1.7 µm bead size, 2.1 × 50 mm; Waters). The method used is a modification of that published by [Frej et al. (2015)]. Specifically, the LC flow rate was set at 0.4 ml/min and the column temperature was 60°C. […]

[3] = LPS 1 mg/kg + 30 mg/kg i.p., 4 h, vs LPS
[4] = whole-brain qRT-PCR, LPS 1 mg/kg + 30 mg/kg i.p., 4 h, vs LPS

CCCCCCCCc1ccc([C@@H]2CC[C@@](N)(CO)C2)cc1 [VPC01091.4, ((1S,3R)-1-amino-3-(4-octylphenyl)cyclopentyl)methanol]
Tolerability in mice ([1]; 30 mg/kg i.p.): well-tolerated | Absolute lymphocyte counts ([1]; 30 mg/kg i.p., 4 h, between treatment groups): no significant differences | Plasma IL-10 ([1]; LPS 1 mg/kg + 30 mg/kg i.p., 4 h): higher levels | Plasma IFNγ [1, 3]: significantly suppressed | Plasma IL-1β [1, 3]: significantly suppressed | Plasma TNFα [1, 3]: significantly suppressed | Brain expression of CCL4 [1, 4]: significantly suppressed | Brain expression of IL-1β [1, 4]: significantly suppressed | Brain expression of IL-6 [1, 4]: significantly suppressed | Brain expression of TNFα [1, 4]: significantly suppressed | Lung expression of IL-6 ([1]; whole-lung qRT-PCR, LPS 1 mg/kg + 30 mg/kg i.p., 4 h, vs LPS): non-significantly lower | Activity at S1P receptors (S1P receptors): not active | Lymphopenia when administered to mice (lymphocytes): do not evoke lymphopenia | LPS-stimulated IL-1β gene expression (RAW 264.7 macrophages; 5 µM pretreatment): almost completely abrogated | LPS-stimulated IL-1β gene expression (RAW 264.7 macrophages; 10 µM pretreatment): almost completely abrogated | Kp at 4 h ([2]; brain / whole blood, 30 mg/kg i.p., VPC4 + LPS group, read-out: Mean brain level relative to mean blood level): 9.35 | Kp at 4 h ([2]; brain / whole blood, 30 mg/kg, 30 mg/kg i.p., VPC4 group, read-out: Mean brain level relative to mean blood level): 8.97 | concentration at 4 h ([2]; brain, 30 mg/kg i.p., VPC4 + LPS group, read-out: Mean brain concentration): 162 µM | concentration at 4 h ([2]; brain, 30 mg/kg i.p., VPC4 group, read-out: Mean brain concentration): 142 µM | Kp at 4 h ([2]; lung / whole blood, 30 mg/kg i.p., VPC4 + LPS group, read-out: Mean lung level relative to mean blood level): 33.2 | Kp at 4 h ([2]; lung / whole blood, 30 mg/kg, 30 mg/kg i.p., VPC4 group, read-out: Mean lung level relative to mean blood level): 31.1 | Kp at 4 h ([2]; lung / whole blood, 30 mg/kg, mice that received VPC4, 30 mg/kg i.p., read-out: Lung levels relative to blood): 32 | concentration at 4 h ([2]; lung, 30 mg/kg i.p., VPC4 + LPS group, read-out: Mean lung concentration): 576 µM | concentration at 4 h ([2]; lung, 30 mg/kg i.p., VPC4 group, read-out: Mean lung concentration): 490 µM | concentration at 4 h ([2]; whole blood, 30 mg/kg i.p. with LPS 1 mg/kg, cotreatment group, read-out: Mean whole blood concentration): 17.4 µM | concentration at 4 h ([2]; whole blood, 30 mg/kg i.p., drug-treated group, read-out: Mean whole blood concentration): 15.8 µM | Brain levels relative to blood ([2]; mice that received VPC4, 30 mg/kg i.p., 4 h): approximately ninefold

From paper PMC10635799, “Analogs of FTY720 inhibit TRPM7 but not S1PRs and exert multimodal anti-inflammatory effects” (The Journal of General Physiology, 2023)
